{
  "source": "patent US11660326B2",
  "about": "“Bacterial-binding peptides for treatment of infectious diseases and related inflammatory processes” (priority 2018, dated 2023)",
  "key": {"[1]": {"assay": "Solid phase binding assay (ELISA) of biotin-labeled peptides to immobilized LPS", "parameters": "species or system E. coli", "conditions": "biotin-labeled peptide 5-20 μg/mL; LPS 5 μg/mL coated", "experimental": "(§1) FIG. 3. Binding of biotin-labeled CD6-derived peptides to immobilized PAMPs from Gram- and Gram+ origin. Increasing concentrations (5-20 μg/mL) of biotin-labeled CD6- (PD1, PD2, PD3 and cons), DMBT1- (pbs1), and CD5- (PD1) derived peptides were added to 96-well ELISA plates sensitized with E. coli 0111:B4 LPS (A) or S. aureus LTA (B) (5 μg/mL each in PBS). Following overnight incubation at 4° C. bound peptides or proteins were developed by addition of horseradish peroxidase (HRP)-labeled streptavidin and 3,3′,5,5′-tetramethylbenzidine (TMB) substrate and further readings at OD 405-620 nm. Results are expressed as mean±SD of duplicates from one representative experiment of three performed. Statistical analysis was performed by two-way ANOVA (*,P<0.05; **, P<0.01; ***, P<0.001).\n(§2) Solid Phase Binding Assays. 96-well microtiter plates (Nunc, Roskilde, Denmark) were coated overnight at 4° C. with 5 μg/mL of purified LPS (E. coli 0111:B4, Sigma L2630) or LTA (S. aureus, Sigma L2515) in PBS, and then incubated for 2 h at room temperature in blocking solution (20 mM Tris-HCl pH 7.4 plus 0.05% Tween 20 and 1% BSA). Biotin-labeled peptides/proteins (2.5-20 μg/mL) were added and incubated overnight at 4° C. in blocking solution. After extensive washing, bound peptides/proteins were detected by the addition of horseradish peroxidase (HRP)-labeled streptavidin (1:5,000 dilution; DAKO) for 1 h at room temperature. Color was developed by adding 3,3′,5,5′-tetramethylbenzidine (TMB) liquid substrate (Sigma), and optical density read at 405-620 nm."}, "[2]": {"assay": "Solid phase binding assay (ELISA) of biotin-labeled peptides to immobilized LTA", "parameters": "species or system S. aureus", "conditions": "biotin-labeled peptide 5-20 μg/mL; LTA 5 μg/mL coated", "experimental": "as §1, §2"}, "[3]": {"assay": "Endotoxin adsorption on peptide/protein-coated Eupergit beads (LAL assay)", "conditions": "50 UI/mL LPS, 0-150 min, vs HSA- and rshCD5-coated controls", "experimental": "FIG. 11. Endotoxin adsorption assays on immobilized CD6-derived peptides and proteins. Eupergit® beads coated with different CD6-derived peptides (PD2, PD3, and Pcons) (A) or proteins (rshCD5 and rshCD6) (B) were incubated for different periods of time (0, 30, 90 and 150 min) with a 50 UI/mL endotoxin solution. Limulus amoebocyte lysate activating activity (LAL activity) of supernatants was then monitored along time and the OD 405-620 nm represented. Beads coated with Human Serum Albumin (HSA) were used as negative controls. Shown are triplicates of a representative experiment from two independent performed. Statistical analysis was done by using the 2-tailed paired T test with 95% confidence interval (***, P<0.001).\nProteins or peptides (2.5 mg each) were immobilized via NH2 groups on macroporous acrylic EUPERGIT© beads (0.2 g; Röhm-Pharma GmbH, Germany) following a previously described protocol (Zimmermann M, et al., 1999, Endotoxin adsorbent based on immobilized human serum albumin. Clin Chem Lab Med 37:373-379). Peptide or protein-coated Eupergit® beads are obtained by incubation with stirring of the polymeric beads at room temperature with a solution of the peptides of the invention in sodium phosphate buffer 100 mM pH 8 for 24 hours. After incubation, the beads were washed 3 times with 3 M sodium chloride pH 7.0, 30 mM sodium phosphate buffer pH 4.0 and 30 mM sodium phosphate buffer pH 8.0. Finally, 154 mM sodium chloride solution pH 7.0 was added to the peptide or protein-coated beads.\nLPS detection was performed by using the turbidimetric-kinetic Limulus Amebocyte Lysate (LAL) kit-QCL (50-650U, Lonza) following manufacturer's instructions. Protein/peptide-coated EUPERGIT® beads were incubated 1:1 (v:v) with the provided endotoxin solution (50 UI/mL) for different periods of time (0-150 min) at room temperature following manufacturer's instructions."}, "[4]": {"assay": "Intrinsic tryptophan fluorescence binding, apparent Kd for LTA", "parameters": "species or system S. aureus", "conditions": "for Kd: PBS, peptide 10 μg/mL, Hill fit", "experimental": "(§3) FIG. 4. Kd analysis of the LPS and LTA interaction with CD6-derived peptides and protein. The apparent Kd values for the binding of peptides and proteins in study to LPS and LTA determined by fluorescence emission of tryptophan residues are shown. Peptides/proteins (10 μg/mL) were titrated with or without increasing concentrations of Re-LPS or LTA in PBS. Peptide samples (with and without either Re-LPS or LTA) and blank samples (Re-LPS or LTA alone) were excited at 295 nm, and the emission spectra recorded from 300 to 400 nm. Results are expressed as the change in peptide fluorescence (AF) at the wavelength of the emission maxima (353 nm for the peptides and 337 nm for rshCD6 protein) in the presence and absence of either Re-LPS or LTA. Results are means±SD of 3 experiments. Peptide fluorescence changes at 353 nm were fitted to the Hill equation.\n(§4) Intrinsicfluorescence experiments. To explore the ability of different peptides/proteins to bind LTA (Mr=14,000, from S. aureus) and rough LPS (Re-LPS, Mr=2500, from Salmonella minnesota serotype Re 595), binding studies were carried out in an AB2 spectrofluorimeter with a thermostated cuvette holder (±0.1° C.), using 5×5 mm path-length quartz cuvettes as described (Coya J M, et al., 2015, Natural Anti-Infective Pulmonary Proteins: In Vivo Cooperative Action of Surfactant Protein SP-A and the Lung Antimicrobial Peptide SP-BN, J Immunol 195:1628-36). Re-LPS concentration was assessed by quantification of 2-keto-3-deoxyoctulosonic acid (Garcia-Verdugo I, et al., 2003, Effect of hydroxylation and N187-linked glycosylation on molecular and functional properties of recombinant human surfactant protein A, Biochemistry 42:9532-42). Peptide/protein samples (10 μg/mL) were titrated with different amounts of a stock solution of either LTA or Re-LPS in phosphate buffered saline (PBS) pH 7.2, and the Trp fluorescence emission spectra recorded with excitation at 295 nm. The fluorescence intensity readings were corrected for the dilution caused by […]. Background intensities in peptide/protein-free samples due to LTA or Re-PS were subtracted from each recording. The apparent dissociation constant (Kd) of peptide/protein-ligand complexes were obtained by nonlinear least-squares fitting to the Hill equation of the change in peptide fluorescence at 353 nm with the amount of added LTA or Re-LPS (Garcia-Verdugo I, et al., 2003, Effect of hydroxylation and N187-linked glycosylation on molecular and functional properties of recombinant human surfactant protein A, Biochemistry 42:9532-42): ΔF/ΔFmax=[L]^n/([L]^n+Kd), where ΔF is the change in fluorescence intensity at 353 nm relative to the intensity of free peptide; ΔFmax is the change in fluorescence intensity at saturating LTA or Re-LPS concentrations; [L] is the molar concentration of free ligand; and n is the Hill coefficient."}, "[5]": {"assay": "Intrinsic tryptophan fluorescence binding, apparent Kd for Re-LPS", "parameters": "species or system Salmonella minnesota serotype Re 595", "conditions": "for Kd: PBS, peptide 10 μg/mL, Hill fit", "experimental": "as §3, §4"}},
  "note": "Read-outs that look alike come from different tables or passages of the source.",
  "data": [
    {"sequence": "GQVEVHFRGVW (CD6.PD3)", "values": [
      {"measurement": "binding to immobilized LPS (ELISA)", "setting": "[1]", "result": "excelled in its ability to bind"},
      {"measurement": "binding to immobilized LTA (ELISA)", "setting": "[2]", "result": "excelled in its ability to bind"},
      {"measurement": "endotoxin levels (LAL assay)", "setting": "[3]", "result": "reduced endotoxin levels"}
    ]},
    {"sequence": "GRVEMLEHGEW [CD6.PD2]", "values": [
      {"measurement": "affinity / Kd for LTA, in words", "setting": "[4]", "result": "lower than the prototypical DMBT1.pbs1 and CD6.cons peptides or the rshCD6 protein itself"},
      {"measurement": "Kd", "setting": "[4]", "result": "0.31 ± 0.04", "unit": "nM"},
      {"measurement": "affinity / Kd for LTA, in words", "setting": "[4]; listed as PD2", "result": "very high affinity"},
      {"measurement": "affinity / Kd for LPS, in words", "setting": "[5]", "result": "lower than the prototypical DMBT1.pbs1 and CD6.cons peptides or the rshCD6 protein itself"},
      {"measurement": "Kd", "setting": "[5]", "result": "35 ± 2", "unit": "nM"},
      {"measurement": "affinity / Kd for LPS, in words", "setting": "[5]; listed as PD2", "result": "very high affinity"},
      {"measurement": "endotoxin levels (LAL assay)", "setting": "[3]", "result": "reduced endotoxin levels"}
    ]},
    {"sequence": "GTVEVRLEASW [CD6.PD1]", "values": [
      {"measurement": "affinity / Kd for LTA, in words", "setting": "[4]", "result": "lower than the prototypical DMBT1.pbs1 and CD6.cons peptides or the rshCD6 protein itself"},
      {"measurement": "Kd", "setting": "[4]", "result": "0.39 ± 0.06", "unit": "nM"},
      {"measurement": "affinity / Kd for LTA, in words", "setting": "[4]; listed as PD1", "result": "very high affinity"},
      {"measurement": "affinity / Kd for LPS, in words", "setting": "[5]", "result": "lower than the prototypical DMBT1.pbs1 and CD6.cons peptides or the rshCD6 protein itself"},
      {"measurement": "Kd", "setting": "[5]", "result": "3.5 ± 0.3", "unit": "nM"},
      {"measurement": "affinity / Kd for LPS, in words", "setting": "[5]; listed as PD1", "result": "very high affinity"}
    ]}
  ]
}
